Assay results from US20120264159A1, “SCREENING SYSTEM FOR MODULATORS OF HER2 MEDIATED TRANSCRIPTION AND HER2 MODULATORS IDENTIFED THEREBY” (BUCK INSTITUTE FOR AGE RESEARCH, priority 2001, published 2012).
Values after ≈ are worked out from the molar mass of the structure shown. Starred links: 1 amine or outer side, 2 acyl side, 3 side chain; linkers in the order of their positions; H or OH if unused. Positions of bridges follow the written chain, without caps; N, C: chain ends. Non-standard residues stand in square brackets, D forms with d. Residues, ends and D or L forms follow the SMILES beside them. Chains are numbered I, II in the order given. Actinocin(9to1) = Cc1c2oc3c(C)ccc(C(=O)[*:1])c3nc-2c(C(=O)[*:2])c(N)c1=O; NMeV = CN[C@H](C(=O)O)C(C)C; Sar = CNCC(=O)O

Assays:
[1] = system: ErbB2 transcript; test: Northern blot of ErbB2 transcript levels in ErbB2 overexpressing breast cancer cells; type: cell-based, human
Method: The conserved and singular DNase I hypersensitivity sites found in the proximal ErbB2 and ESX promoters (12,15) were assayed as before (12). Briefly, following culture treatment of cells, nuclei isolated by mild detergent lysis in a buffer containing 10 mM Hepes pH 7.9, 1.5 mM MgCl2, 10 mM KCl, 0.4% NP-40, 10% glycerol and 1 mM DTT. Partial DNase I digestions were carried out by varying DNase I treatment times (0-15 minutes at 37( ) at a fixed DNase I concentrations (0.5-1.0 units per 10^6 nuclei). After purifying and restricting the DNA, it was electrophoresed through 0.7% agarose gels and blotted onto nylon membranes, UV-crosslinked and hybridized with randomly ^32P-labelled ErbB2 and ESX promoter probes, as similarly performed for routine Southern blotting. For Northern blotting, total (treated vs. control) cell RNA (10 μg/sample lane) was isolated using TRIzol (Invitrogen) according to manufacturer's specifications, electrophoresed into 1% agarose-formaldehyde gels and transferred onto membranes that were then hybridized with ^32P-labelled ErbB2 and ESX cDNA probes. For transcriptional run-off assays cell nuclei were first isolated from treated and control cells as described for the DNase I studies. Elongatation of initiated nascent RNA chains was performed at 37 (C for 30 minutes using ˜5×10^6 nuclei per reaction in a buffer containing 10 mM Tris pH7.5, 2.5 mM MgCl2, 150 mM KCl, 1 mM DTT, 10% glycerol, 0.5 mM ATP, GTP and CTP, and 100 μCi of [α-^32P]UTP (800 Ci/mmol). Nuclear RNA was purified by the addition of 100 units of RNase-free DNase I (Roche) per reaction for 2 minutes followed by TRIzol processing. Radiolabelled RNA was hybridized (˜4×10^6 cpm) at 68 (C in ExpressHyb (Clontech) for 24 hours to nylon filter membranes previously slotted with 0.5 μg per slot of unlabelled ErbB2 cDNA fragments (from either the transmembrane or C-terminal domains), ESX cDNA fragments, and empty plasmid control, as we have previously described (16). Filters were washed at 64 (C in 0.2 SSC and 0.5% SDS. For Western blotting, whole-cell extracts from control vs. treated cells were boiled in sample loading buffer (1% SDS, 20% glycerol, 100 mM DTT, 50 mM Tris, pH 6.8), gel lanes loaded for constant total protein (15 μg), electrophoresed into 9% sodium dodecyl sulfacte polyacrylamide (SDS-PAGE) gels, transferred onto membranes (Immobilon-P, Millipore), and the protein-bound membranes hybridized with a primary antibody followed by a horseradish peroxidase-conjugated secondary antibody (Sigma), and specific protein bands visualized by chemiluminescent substrate (Pierce), as previously described (10).

[2] = system: ErbB2 promoter; test: Genomically integrated ErbB2 promoter-luciferase reporter screen in MCF/R06pGL-9 cells; type: cell-based, human; settings: 24 h treatment
Method: (§1) Reporter activity was assayed as follows: From T-150 or T-75 culture flasks, about […] cells/well were plated into a 96 well plate format for high-throughput screening. 24 hours post plating a test agent e.g. a drug from a combinatorial library, was added to the wells at various concentrations. Certain wells were used as controls (e.g. PBS or DMSO vehicle only). Replicate wells ([…] per drug concentration) were run. 24 hours after addition of the test agent the cells were lysed, a luciferase reagent was added and activity in each well was read using a high-throughput screening plate reader (labsystems Fluoroskan). Parallel plates were run for cell viability using an MTT assay (Sigma).
A luciferase reporter plasmid (designated RO6pGL-luc) was constructed by inserting the ˜500 bp SmaI-SmaI fragment of the human ErbB2 proximal promoter (12) into the pGL3Basic plasmid driving a luciferase reporter gene, as has been described (10). R06pGL-luc and a plasmid expressing neomycin phosphotransferase were co-transfected into the MCF-7 cells (ATCC) using Effectene (Qiagen). Cells were selected for stable expression of luciferase and neomycin (G418)-resistance. […] The reaction was quantified by absorbance at 570 nm measured with a microplate reader (Molecular Devices) and the mean (±SD) optical density recorded after normalization by the vehicle treated controls. […]

[3] = system: ESX transcript; test: Northern blot of ESX transcript levels in SKBR3 cells; type: cell-based, human; settings: 5 hours Act D
Method: The conserved and singular DNase I hypersensitivity sites found in the proximal ErbB2 and ESX promoters (12,15) were assayed as before (12). Briefly, following culture treatment of cells, nuclei isolated by mild detergent lysis in a buffer containing 10 mM Hepes pH 7.9, 1.5 mM MgCl2, 10 mM KCl, 0.4% NP-40, 10% glycerol and 1 mM DTT. Partial DNase I digestions were carried out by varying DNase I treatment times (0-15 minutes at 37( ) at a fixed DNase I concentrations (0.5-1.0 units per 10^6 nuclei). After purifying and restricting the DNA, it was electrophoresed through 0.7% agarose gels and blotted onto nylon membranes, UV-crosslinked and hybridized with randomly ^32P-labelled ErbB2 and ESX promoter probes, as similarly performed for routine Southern blotting. For Northern blotting, total (treated vs. control) cell RNA (10 μg/sample lane) was isolated using TRIzol (Invitrogen) according to manufacturer's specifications, electrophoresed into 1% agarose-formaldehyde gels and transferred onto membranes that were then hybridized with ^32P-labelled ErbB2 and ESX cDNA probes. For transcriptional run-off assays cell nuclei were first isolated from treated and control cells as described for the DNase I studies. […]

[4] = system: NCI panel of 60 human cancer cell lines; settings: free drug, cell lines not overexpressing ErbB2; cited from earlier work
[5] = system: BT-474 cells; test: In vitro antitumor activity against ErbB2-amplified BT-474 cells; type: cell-based
Method: FIG. 9 illustrates validation of NSC-176328 antitumor selectivity. ErbB2-positive human cancer cells are 8.5-fold more sensitive to NSC-176328 than a panel of ErbB2-negative cancer cells. In vitro antitumor activity against ErbB2-amplified BT-474 cells of free and liposome- or immunoliposome-encapsulated Ellipticine (NSC-176328). 6-3-aminopropylellipticine (AE; NSC 176328) was administered to cell cultures as free drug or after being encapsulated into liposomes (L-AE) or immunoliposomes (ILS-AE); the former prevent escape and cell exposure to free AE, the latter specifically internalize into and release AE within ErbB2 overexpressing tumor cells.

[6] = system: RO6 HER2 promoter; test: Basal promoter activity of MDA-453 stable RO6 polyclonal populations; type: cell-based, human; settings: 10 nM TPA in DMSO, 8 and 48 hr, presence of serum, compared with DMSO only
Method: (§2) Parental cell lines MCF-7, and MDA-453 were transfected with the construct Ro6pGL (FIG. 2) in conjunction with pcMneo construct using lipid-based transfection (Effectene) at a ratio of 20:1 reporter:selectable marker (see, FIG. 4). Monoclonal and polyclonal populations were selected in 0.5 mg/ml G418 over 2 to 4 weeks.
as §1, with “24 hours after addition of the test agent the cells were lysed, a luciferase reagent was added and activity in each well was read using a high-throughput screening plate reader (labsystems Fluoroskan).” left out

[7] = system: RO6 HER2 promoter; test: Basal promoter activity of MCF-7b stable RO6 populations; type: cell-based, human; settings: 10 nM, 24 hours, serum-free media, clone and polyclonal populations
Method: as §2, §1

With CCCC(=O)[O-].[Na+] [sodium butyrate] the ErbB2 transcript levels ([1]; 3 mM × 24 hours (data not shown)) was “Virtually complete elimination of ErbB2 transcript levels” and the “ErbB2 promoter-reporter (luciferase) activity” value [2] was “significantly represses”.
For C[C@@H]1C[C@@H]([C@H](O)CC2CC(=O)NC(=O)C2)C(=O)[C@@H](C)C1 [cycloheximide], the “effect on TSA induced ErbB2 transcript decay” value ([1]; BT-474 or MDA-453 cells (data not shown)) was “no ability to arrest TSA induced ErbB2 transcript decay”, the “ErbB2 transcript levels in control cells” value ([1]; SKBR3 cells, 50 μg/ml) was “no effect on ErbB2 transcript levels in control cells” and the “effect on TSA induced accelerated ErbB2 mRNA degradation” value ([1]; SKBR3 cells, 50 μg/ml) was “completely inhibited the accelerated ErbB2 mRNA degradation induced by TSA”.
For Cc1c2oc3c(C)ccc(C(=O)N[C@@H]4C(=O)N[C@H](C(C)C)C(=O)N5CCC[C@H]5C(=O)N(C)CC(=O)N(C)[C@@H](C(C)C)C(=O)O[C@@H]4C)c3nc-2c(C(=O)N[C@@H]2C(=O)N[C@H](C(C)C)C(=O)N3CCC[C@H]3C(=O)N(C)CC(=O)N(C)[C@@H](C(C)C)C(=O)O[C@@H]2C)c(N)c1=O [Act D, actinomycin D] (I: T[dV]P[Sar][NMeV] / II: T[dV]P[Sar][NMeV]; ester I:1-I:C, II:1-II:C; linker I:N-II:N via Actinocin(9to1)), the “ErbB2 mRNA level / decay” value ([1]; SKBR3 cells, 5 hours treatment, TSA 0.05 or 0.40 μM, Act D 10 μg/ml) was “only a slight reduction in ErbB2 mRNA level” and the “ESX mRNA level” value [3] was “complete loss of the short-lived ESX mRNA”.
For Cc1c2cnccc2c(C)c2c1c1ccccc1n2CCCN [AE, 6-3-aminopropylellipticine], the “average LC50” value [4] is given as 1700 µg/mL, the “sensitivity of ErbB2-positive vs ErbB2-negative cancer cells” value ([5]; BT-474 vs NCI panel of ErbB2-negative cancer cells) is given as 8.5 fold and the LC50 ([5]; free drug, ErbB2 overexpressing BT-474 cells) is given as 200 µg/mL (≈ 659 µM).
In the case of CCCCCCCCCCCCCC(=O)O[C@@H]1[C@@H](C)[C@@]2(O)[C@@H](C=C(CO)C[C@]3(O)C(=O)C(C)=C[C@@H]23)[C@@H]2C(C)(C)[C@]12OC(C)=O [TPA], the basal promoter activity [6] is reported as “no significant effect on basal promoter activity” and the basal promoter activity [7] is reported as “decreased basal promoter activity”.
